Measured values: ChEMBL document CHEMBL1201862, “PubChem BioAssay data set” (2004)
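All cell lines were grown in 96-well plates and treated with compound for 48 hours. GI50 marks 50% less growth.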 The source made the active and inactive calls. Rule as the data show it: active = GI50 up to about 1.1 µM and inactive = higher.

Experiments:
Assay in all cases: NCI anticancer screen, dose series, 48 h
[1] = tested on: MCF7
[2] = tested on: DU-145
[3] = tested on: HOP-92
[4] = tested on: KM12
[5] = tested on: TK-10
[6] = tested on: M14
[7] = tested on: SN12C
[8] = tested on: OVCAR-5
[9] = tested on: SK-MEL-5
[10] = tested on: HCT-116
[11] = tested on: SW-620
[12] = tested on: OVCAR-4
[13] = tested on: COLO 205
[14] = tested on: 786-0
[15] = tested on: NCI-H226
[16] = tested on: BT-549
[17] = tested on: LOX IMVI
[18] = tested on: NCI-H522
[19] = tested on: SF-295
[20] = tested on: OVCAR-8
[21] = tested on: K562
[22] = tested on: SK-MEL-28
[23] = tested on: HL-60
[24] = tested on: RPMI-8226
[25] = tested on: MOLT-4
[26] = tested on: MDA-MB-435
[27] = tested on: NCI/ADR-RES
[28] = tested on: UACC-257
[29] = tested on: ACHN
[30] = tested on: NCI-H460
[31] = tested on: Hs-578T
[32] = tested on: HT-29
[33] = tested on: UO-31
[34] = tested on: EKVX
[35] = tested on: IGROV-1
[36] = tested on: UACC-62
[37] = tested on: CCRF-CEM
[38] = tested on: A549
[39] = tested on: MDA-N
[40] = tested on: HOP-62
[41] = tested on: PC-3
[42] = tested on: SNB-75
[43] = tested on: CAKI-1
[44] = tested on: MDA-MB-231
[45] = tested on: SK-OV-3
[46] = tested on: T47D
[47] = tested on: A498
[48] = tested on: SNB-19
[49] = tested on: SF-539
[50] = tested on: HCT-15
[51] = tested on: SR
[52] = tested on: HCC 2998
[53] = tested on: OVCAR-3
[54] = tested on: U-251
[55] = tested on: SK-MEL-2
[56] = tested on: Malme-3M
[57] = tested on: RXF 393
[58] = tested on: NCI-H23
[59] = tested on: SF-268

O=C(O)CCN1CCN(CCC(=O)O)CCN(CCC(=O)O)CC1
GI50 [1]: 98.2 µM (inactive)
GI50 [2]: > 100 µM (inactive)
GI50 [3]: > 100 µM (inactive)
GI50 [4]: 69.7 µM (inactive)
GI50 [5]: > 100 µM (inactive)
GI50 [6]: > 100 µM (inactive)
GI50 [7]: > 100 µM (inactive)
GI50 [8]: > 100 µM (inactive)
GI50 [9]: 74 µM (inactive)
GI50 [10]: 32.6 µM (inactive)
GI50 [11]: 44.4 µM (inactive)
GI50 [12]: > 100 µM (inactive)
GI50 [13]: 92.7 µM (inactive)
GI50 [14]: 79.6 µM (inactive)
GI50 [15]: > 100 µM (inactive)
GI50 [16]: > 100 µM (inactive)
GI50 [17]: 82.8 µM (inactive)
GI50 [18]: > 100 µM (inactive)
GI50 [19]: > 100 µM (inactive)
GI50 [20]: > 100 µM (inactive)
GI50 [21]: 36.3 µM (inactive)
GI50 [22]: > 100 µM (inactive)
GI50 [23]: 25.5 µM (inactive)
GI50 [24]: 83.4 µM (inactive)
GI50 [25]: > 100 µM (inactive)
GI50 [26]: > 100 µM (inactive)
GI50 [27]: > 100 µM (inactive)
GI50 [28]: > 100 µM (inactive)
GI50 [29]: > 100 µM (inactive)
GI50 [30]: 56.2 µM (inactive)
GI50 [31]: > 100 µM (inactive)
GI50 [32]: 53.6 µM (inactive)
GI50 [33]: > 100 µM (inactive)
GI50 [34]: > 100 µM (inactive)
GI50 [35]: > 100 µM (inactive)
GI50 [36]: > 100 µM (inactive)
GI50 [37]: > 100 µM (inactive)
GI50 [38]: 69.3 µM (inactive)
GI50 [39]: > 100 µM (inactive)
GI50 [40]: > 100 µM (inactive)
GI50 [41]: > 100 µM (inactive)
GI50 [42]: 45.8 µM (inactive)
GI50 [43]: > 100 µM (inactive)
GI50 [44]: > 100 µM (inactive)
GI50 [45]: > 100 µM (inactive)
GI50 [46]: > 100 µM (inactive)
GI50 [47]: > 100 µM (inactive)
GI50 [48]: > 100 µM (inactive)
GI50 [49]: > 100 µM (inactive)
GI50 [50]: 91.2 µM
GI50 [51]: 44.6 µM (inactive)
GI50 [52]: > 100 µM (inactive)
GI50 [53]: > 100 µM (inactive)
GI50 [54]: > 100 µM (inactive)
GI50 [55]: > 100 µM (inactive)
GI50 [56]: > 100 µM (inactive)

Cc1ccc2[nH]/c(=N/S(=O)(=O)c3cc(C)c(Cl)cc3S)[nH]c2c1
GI50 [1]: 64.1 µM (inactive)
GI50 [2]: > 100 µM (inactive)
GI50 [3]: > 100 µM (inactive)
GI50 [4]: 41.6 µM (inactive)
GI50 [5]: > 100 µM (inactive)
GI50 [6]: 97.7 µM (inactive)
GI50 [7]: > 100 µM (inactive)
GI50 [57]: > 100 µM (inactive)
GI50 [8]: > 100 µM (inactive)
GI50 [9]: 31.3 µM (inactive)
GI50 [10]: 46.6 µM (inactive)
GI50 [11]: 43.8 µM (inactive)
GI50 [12]: 65 µM (inactive)
GI50 [13]: 58.5 µM (inactive)
GI50 [14]: 45.9 µM (inactive)
GI50 [16]: > 100 µM (inactive)
GI50 [17]: 25.4 µM (inactive)
GI50 [18]: > 100 µM (inactive)
GI50 [19]: 49.5 µM (inactive)
GI50 [20]: 93.1 µM (inactive)
GI50 [21]: 50.2 µM (inactive)
GI50 [22]: 45.7 µM (inactive)
GI50 [23]: 28.8 µM (inactive)
GI50 [24]: 40 µM (inactive)
GI50 [25]: 25.6 µM (inactive)
GI50 [26]: 28.4 µM (inactive)
GI50 [27]: > 100 µM (inactive)
GI50 [28]: > 100 µM (inactive)
GI50 [29]: 41.2 µM (inactive)
GI50 [30]: 16.4 µM (inactive)
GI50 [31]: 88.3 µM (inactive)
GI50 [32]: > 100 µM (inactive)
GI50 [33]: 57 µM (inactive)
GI50 [34]: 31.9 µM (inactive)
GI50 [35]: 34.4 µM (inactive)
GI50 [36]: > 100 µM (inactive)
GI50 [37]: 21.4 µM (inactive)
GI50 [38]: 44.2 µM (inactive)
GI50 [39]: 87.5 µM (inactive)
GI50 [40]: 34.8 µM (inactive)
GI50 [41]: 50 µM (inactive)
GI50 [42]: 25.1 µM (inactive)
GI50 [43]: 48.1 µM (inactive)
GI50 [44]: > 100 µM (inactive)
GI50 [45]: > 100 µM (inactive)
GI50 [58]: 66.2 µM (inactive)
GI50 [46]: 44.9 µM (inactive)
GI50 [47]: 52.8 µM (inactive)
GI50 [48]: 36.3 µM (inactive)
GI50 [49]: 74.3 µM (inactive)
GI50 [50]: 67.9 µM
GI50 [51]: 31.6 µM (inactive)
GI50 [52]: > 100 µM (inactive)
GI50 [53]: 91.2 µM (inactive)
GI50 [54]: 24 µM (inactive)
GI50 [59]: 39.8 µM (inactive)
GI50 [55]: 78.3 µM (inactive)
GI50 [56]: > 100 µM (inactive)

COc1cc2cc(C(=O)N3CC(CCl)c4c3cc(N)c3ccccc43)[nH]c2c(OC)c1OC (configuration not stated)
GI50 [1]: < 0.01 µM (active)
GI50 [2]: < 0.01 µM (active)
GI50 [3]: < 0.01 µM (active)
GI50 [4]: < 0.01 µM (active)
GI50 [5]: < 0.01 µM (active)
GI50 [6]: < 0.01 µM (active)
GI50 [7]: < 0.01 µM (active)
GI50 [57]: < 0.01 µM (active)
GI50 [8]: < 0.01 µM (active)
GI50 [9]: < 0.01 µM (active)
GI50 [10]: < 0.01 µM (active)
GI50 [11]: < 0.01 µM (active)
GI50 [12]: < 0.01 µM (active)
GI50 [13]: < 0.01 µM (active)
GI50 [14]: < 0.01 µM (active)
GI50 [15]: < 0.01 µM (active)
GI50 [16]: < 0.01 µM (active)
GI50 [17]: < 0.01 µM (active)
GI50 [18]: < 0.01 µM (active)
GI50 [19]: < 0.01 µM (active)
GI50 [20]: < 0.01 µM (active)
GI50 [21]: < 0.01 µM (active)
GI50 [22]: < 0.01 µM (active)
GI50 [24]: < 0.01 µM (active)
GI50 [25]: < 0.01 µM (active)
GI50 [26]: < 0.01 µM (active)
GI50 [27]: < 0.01 µM (active)
GI50 [28]: < 0.01 µM (active)
GI50 [29]: < 0.01 µM (active)
GI50 [30]: < 0.01 µM (active)
GI50 [31]: < 0.01 µM (active)
GI50 [32]: < 0.01 µM (active)
GI50 [33]: < 0.01 µM (active)
GI50 [34]: < 0.01 µM (active)
GI50 [35]: < 0.01 µM (active)
GI50 [36]: < 0.01 µM (active)
GI50 [37]: < 0.01 µM (active)
GI50 [38]: < 0.01 µM (active)
GI50 [39]: < 0.01 µM (active)
GI50 [40]: < 0.01 µM (active)
GI50 [41]: < 0.01 µM (active)
GI50 [42]: < 0.01 µM (active)
GI50 [43]: < 0.01 µM (active)
GI50 [44]: < 0.01 µM (active)
GI50 [45]: < 0.01 µM (active)
GI50 [58]: < 0.01 µM (active)
GI50 [46]: < 0.01 µM (active)
GI50 [47]: < 0.01 µM (active)
GI50 [48]: < 0.01 µM (active)
GI50 [49]: < 0.01 µM (active)
GI50 [50]: < 0.01 µM
GI50 [51]: < 0.01 µM (active)
GI50 [52]: < 0.01 µM (active)
GI50 [53]: < 0.01 µM (active)
GI50 [54]: < 0.01 µM (active)
GI50 [59]: < 0.01 µM (active)
GI50 [55]: < 0.01 µM (active)
GI50 [56]: < 0.01 µM (active)
